Measured values taken from PMC5085626, “Characterization of a β-Adrenergic-Like Octopamine Receptor in the Oriental Fruit Fly, Bactrocera dorsalis (Hendel)” (International Journal of Molecular Sciences, 2016).
Structures can show the parent of a compound that is named as a salt. One block for each compound: values may come before it.

Experiments:
[1] = system: DmOctβR1; set-up: method as in PMID 15998303; details: DmOctβR1 in Drosophila; cited from earlier work
[2] = target: T1, BdOctβR1 (Bactrocera dorsalis, UniProt A0ABM3J3U4); test: Agonist cAMP response assay (GloSensor luminescence) of BdOctβR1 transiently expressed in HEK-293 cells; format: cell-based; details: for EC50: BdOctβR1 in HEK-293 cells, cAMP luminescence, read-out: median effective concentration (EC50)
Excerpt: A 10-fold serial dilution of the ligands octopamine, tyramine, dopamine, naphazoline, and phentolamine was applied to the cells. […] The authentic ligand octopamine was selected as the model ligand for normalization of the luminescence. A concentration–response curve was generated for each receptor by logistic fitting in Origin 8.6 (OriginLab, Northampton, MA, USA) as previously reported.

[3] = system: empty pcDNA3.1 vector-transfected HEK-293 cells; test: Negative control: cAMP luminescence in empty pcDNA3.1 vector-transfected HEK-293 cells; format: cell-based; details: ligands at 1.00 × 10^−6 M
[4] = target: T1, BdOctβR1
Protocol: (§1) For the cAMP response assays, we used the non-lytic GloSensor cyclic AMP assay kit (Promega) for monitoring intracellular cAMP in live cells. At the same time, the empty pcDNA3.1 vector was transfected in HEK-293 cells as a negative control. The methods for transient expression of BdOctβR1 in HEK-293 cells and procedures for the assays were followed as previously described [41, 42, 43, 44]. Thirty hours after the transfection, the cells were collected and preincubated with 1% GloSensor substrate in HEK-293 cells (Invitrogen) before the test. Ligands being tested were plated in each well of the 96-well plate. As described previously, the cells were injected into a well, and the changes in luminescence were monitored [45].
(§2) The antagonist assay was examined with serial dilutions of antagonists in the transfected cells on a luminescence detection systems (Berthold Technologies). Basically, the antagonistic activity assay was conducted in 2 sequential treatments. In the 1st treatment, various concentrations of ligands (50 μL in volume) were plated in each well, including a solvent (DMEM, Dulbecco’s modified Eagle’s medium) as control. Following the injection of the cells into the well, a 30-min incubation with the tested ligands was conducted. Subsequently, the 2nd treatment was conducted. The cells were treated with 1.00 × 10^−6 M octopamine, which was the minimum concentration inducing the maximal activity, and the luminescent response was measured. For the assays, the cells treated with DMEM in both the 1st and 2nd treatment were set as background. The cells were treated with DMEM in the 1st treatment, while 1.00 × 10^−6 M octopamine in the 2nd treatment, without adding any antagonist, served as positive control. Relative luminescence of ligand was normalized to the largest positive control response in each plate (1.00 × 10^−6 M octopamine) after background subtractions [43]. The values calculated in the treatment were used to construct the inhibitor concentration–response curves. […]

[5] = target: T1, BdOctβR1; test: cell-based
Protocol: as §1, §2

[6] = system: DmOctβR1; set-up: method as in PMID 15998303; details: DmOctβR1 of D. melanogaster; cited from earlier work
[7] = system: AmOctβR1; set-up: method as in PMID 24266860; details: AmOctβR1 of A. mellifera; cited from earlier work

T1 sequence (A0ABM3J3U4 entry or part of it): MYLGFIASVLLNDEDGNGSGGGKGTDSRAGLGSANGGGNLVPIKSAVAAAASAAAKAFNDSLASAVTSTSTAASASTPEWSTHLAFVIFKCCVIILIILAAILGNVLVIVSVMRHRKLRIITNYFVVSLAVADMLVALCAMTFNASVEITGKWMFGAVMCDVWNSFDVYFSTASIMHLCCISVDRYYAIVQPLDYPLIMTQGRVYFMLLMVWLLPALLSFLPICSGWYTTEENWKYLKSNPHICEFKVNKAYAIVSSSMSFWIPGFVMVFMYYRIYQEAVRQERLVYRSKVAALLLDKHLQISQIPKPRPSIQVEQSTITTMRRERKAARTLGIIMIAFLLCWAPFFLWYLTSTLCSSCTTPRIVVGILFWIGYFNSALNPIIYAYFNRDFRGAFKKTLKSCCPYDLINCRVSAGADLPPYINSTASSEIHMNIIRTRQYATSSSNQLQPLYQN

Compound: CN1CCN2c3ccccc3Cc3ccccc3C2C1 (centres unmarked) [mianserin, mianserin hydrochloride]
antagonistic activity (in words) [1]: blocked

Compound: NCCc1ccc(O)cc1 [tyramine, Tyramine hydrochloride]
EC50 [2]: 19.7 nM
effect on cAMP luminescence / cAMP production in empty-vector cells [3]: not

Compound: NCCc1ccc(O)c(O)c1 [dopamine, dopamine hydrochloride]
EC50 [2]: 3320 nM

Compound: CN(C)CCCN1c2ccccc2Sc2ccc(Cl)cc21 [chlorpromazine, chlorpromazine hydrochloride]
antagonistic activity (in words) [4]: weak antagonistic activity
antagonistic activity (in words) [1]: ineffective
IC50 [5]: 2660 nM

Compound: NCC(O)c1ccc(O)cc1 (racemic) [octopamine, (±)-octopamine hydrochloride]
EC50 [2]: 0.911 nM
effect on cAMP luminescence / cAMP production in empty-vector cells [3]: not
EC50 [6]: 5.56 nM
EC50 [7]: 43.9 nM

Second part, the compound after the results:

Emax at 10 µM ([2]; HEK293, at 1.00 × 10^−5 M, normalized to octopamine at 1 × 10^−5 M (=100%), read-out: agonistic effect (relative cAMP luminescence)): ~20%
IC50 [5]: 3800 nM
Compound: Cc1ccc(N(CC2=NCCN2)c2cccc(O)c2)cc1 [phentolamine, phentolamine hydrochloride]

EC50 [2]: 0.635 nM
Compound: c1ccc2c(CC3=NCCN3)cccc2c1 [naphazoline, naphazoline hydrochloride]
